Values quoted from earlier work, collected in patent publication US20090215892A1, “Octanol Formulations and Methods of Treatment Using the Same” (priority 2005, published 2009).

Key:
mice = details: tested orally in mice
essential tremor [1] = details: twelve patients
essential tremor [2] = details: lactose capsule form
[3] = ordinary conditions of use and storage
[4] = test system: hereditary essential tremor; details: patients with hereditary essential tremor

## CCCCCCCCO [Example 1-octanol, 1-octanol]
other
  solubility in water: slightly soluble
  Solubility in Water at 40° C. (Wt %): 0.065 Wt %
mice
  toxicity LD5O: 1790 mg/kg
Essential tremor [1]; 1 mg/kg 1-octanol, no improvement in placebo group (Bushara 2002)
  duration of reduction of peak tremor amplitude versus baseline: up to 2 hours
Essential tremor [1]; single oral dose of 1 mg/kg, anhydrous lactose coated capsule (Bushara 2004)
  change of tremor amplitude frequency: decrease
Essential tremor [2]; single oral doses up to 64 mg/kg
  side-effect noted: unusual taste
Essential tremor [2]; single oral doses, patients with essential tremor
  tolerated dose: up to 64 mg/kg
[3]
  stability: stable

## CCCCCCC(C)O (centres unmarked) [Example 2-octanol, 2-octanol]
other
  Solubility in Water at 40° C. (Wt %): 0.089 Wt %

## CCCCC(O)CCC (centres unmarked) [Example 4-octanol, 4-octanol]
other
  Solubility in Water at 40° C. (Wt %): 0.095 Wt %

## CCO [ethanol]
[4]
  patients in whom treatment was effective: 50%
